The record followed here is publication PMC10714930, “In silico virtual screening for the identification of novel inhibitors against dihydrodipicolinate reductase (DapB) of Mycobacterium tuberculosis, a key enzyme of diaminopimelate pathway” (Microbiology Spectrum, 2023).

The test system of the assay is M. tb.pFICTO-dapB. Put plainly: microbe, parasite or virus in culture. The class given is cell-based, Mycobacterium tuberculosis.

Values after ≈ are worked out from the molar mass of the structure shown.

Regarding `COC(=O)CCCc1nc2ccccc2nc1N=Nc1ccccc1` [Compound B59, 4-(3-Phenylazoquinoxalin-2-yl) butanoic acid methyl ester], under “M. tb.pFICTO-dapB vs M. tb H37Rv”, the “MIC99 in overexpressing strain relative to wild type” value is reported as 2 x MIC99. The MIC99 (Mycobacterium tuberculosis, 168 h, M. tb.pFICTO-dapB, 7 days, read-out: MIC99 against DapB-overexpressing strain) was found to be 40 µg/mL (≈ 120 µM).
